Test results: US7781423B2, “Compounds to promote regeneration of bone marrow” (priority 2007, dated 2010)

Test system: human bone marrow-derived mesenchymal stem cells
Experiment: Proliferation of mesenchymal stem cells in the presence of 2% serum (viable cell number)
Assay type: cell-based
Settings: 10 μM or 50 μM
Protocol: Bone marrow aspirates were taken from normal adult donors after an informed consent was signed. Bone marrow mesenchymal stem cells were prepared by a widely used technique as described earlier by others. Pittenger, M. F., Mackay, A. M., Beck, S. C., Jaiswal, R. K., Douglas, R., Mosca, J. D., Moorman, M. A., Simonetti, D. W., Craig, S. and Marshak, D. R., “Multilineage potential of adult human mesenchymal stem cells,” Science, 284, 143-147 (1999). […] When cells grew to about 80% confluence, they were suspended and harvested by incubating with a ready-made solution containing 0.25% trypsin and 1 mM EDTA (Sigma-Aldrich, St. Louis, Mo.) for 5 minutes at 37° C.; this cell suspension is designated as passage 1. […]
The total numbers of nucleated and viable cells were determined with a hemocytometer, using Turck's solution and trypan blue stain, respectively. […]
In the experiments reported in Table 7 and Table 8, human bone marrow-derived mesenchymal stem cells were split at 1:3 and then incubated for 24 hours in 10% fetal calf serum-containing medium to about 30-35% confluence. […] The data are expressed as mean values±std. dev. of 3 determinations.

SMILES: Cc1c(OCC(O)C[N+](C)(C)C)cc2c(=O)c3ccccc3sc2c1C.[Cl-] (stereo not shown) [CCcompound1, [3-(3,4-Dimethyl-9-oxo-9H-thioxanthen-2-yloxy)-2-hydroxypropyl]trimethyl-ammonium chloride]
- effect on the proliferation of stem cells: no direct stimulatory effect
